The results in this text go back to patent publication EP1948196B1, “USE OF TETRAORGANOSILICON COMPOUNDS” (Salama, Zoser B., priority 2005, dated 2007).

Assay [1] deals with Seminome. Description: Effect on seminomas.
Assay [2] concerns Hepatitis C-Viren. Description: Antiviral effect. The settings on record: in particular as vesicles holding antisense constructs.
Assay [3] deals with Adenokarzinom-Gewebe. Nature of the assay: Effect against adenocarcinoma tissue, inhibition of metastasis.
Assay [4] relates to Hepatitis B-Viren. Nature of the assay: Antiviral effect. The settings on record: in particular as vesicles holding antisense constructs.
In assay [5] the test system is Angiosarkome. Nature of the assay: Effect on angiosarcomas.
Assay [6] relates to Sendai-Viren. Description: Antiviral effect. The note with it: in particular as vesicles holding antisense constructs.
Assay [7] has as its system Basalzellkarzinome. Nature of the assay: Effect on basal cell carcinomas.
The test system of assay [8] is Medulloblastom-Zellen. Description: Inhibition of cell multiplication. The format is cell-based.
Assay [9] relates to Zellen des Basatzellkarzinoms. Description: Inhibition of cell multiplication. The class given is cell-based.
The test system of assay [10] is Osteosarkom bzw. Adenokarzinome. Nature of the assay: Effect in mice on osteosarcoma or adenocarcinoma. The arrangement: species or system Mäuse. The settings on record: in vivo.
In assay [11] the test system is Adenokarzinome. Nature of the assay: Effect on adenocarcinomas.
In assay [12] the test system is Hepatitis-Viren. Nature of the assay: Antiviral effect. The settings on record: in particular as vesicles holding antisense constructs.
In assay [13] the test system is Lymphome. Nature of the assay: Effect on lymphomas.

Numbered stars: 1 amine (or outer) side, 2 acyl side, 3 side chain; on linkers, the order of the positions; unused ones are H or OH. Bridge positions count the residues as written; N and C are the ends. Peptide text beside a SMILES is read from it. I, II: the chains in the order shown. X2 = c1ccc([Si](O[*:1])(O[*:2])c2ccccc2)cc1; X1 = C[Si](C)(O[*:1])O[*:2]

In the case of `CCCCCCCC/C=C\CCCCCCCC(=O)O[Si](CC)(CC)OC(=O)CCCCCCC/C=C\CCCCCCCC` [Di (oleylooxy)diethylsilan], in [1], the “Wirkung auf Seminome” value is given as “zeigen eine Wirkung”. Besides, the “Wirkung gegen Hepatitis C-Viren” value in [2] was “zeigen eine Wirkung”.

Take `CCCCCCCCCCCC(=O)O[Si](OC(=O)CCCCCCCCCCC)(C(C)C)C(C)C` [Di(dodecanoyloxy)diisopropylsilan]: the “Wirkung gegen Adenokarzinom-Gewebe, insbesondere inhibierende Wirkung auf die Metastasierung” value in assay [3] is recorded as “haben eine Wirkung”.

Consider `CCCCCCCCCCCCCCCCC(=O)O[Si](CCC)(CCC)OC(=O)CCCCCCCCCCCCCCCC` [Di(heptadecanoyloxy)dipropylsilan], for which the “Wirkung gegen Hepatitis B-Viren” value in assay [4] is “zeigen eine Wirkung”. For the same compound, in [5], the “Wirkung gegen Angiosarkome” value is recorded as “zeigen eine Wirkung”. In addition, the “Wirkung gegen Sendai-Viren” value in [6] is recorded as “zeigen eine Wirkung”. Further, in assay [7], the “Wirkung auf Basalzellkarzinome” value is listed as “zeigen eine Wirkung”.

For the compound `CCCCCCCCCCCCCCCC(=O)O[Si](OC(=O)CCCCCCCCCCCCCCC)(C(C)C)C(C)C` [Di(hexadecanoyloxy)diisopropylsilan], the “Wirkung gegen Adenokarzinom-Gewebe, insbesondere inhibierende Wirkung auf die Metastasierung” value in assay [3] is recorded as “haben eine Wirkung”.

Take `CCCCCCCCCCCCCCCC(=O)O[Si](CCC)(CCC)OC(=O)CCCCCCCCCCCCCCC` [Di(hexadecanoyloxy)dipropylsilan]: the “Wirkung gegen Hepatitis B-Viren” value in assay [4] was “zeigen eine Wirkung”. In assay [5], the “Wirkung gegen Angiosarkome” value is reported as “zeigen eine Wirkung”. Also, the “Wirkung gegen Sendai-Viren” value in assay [6] is “zeigen eine Wirkung”. Moreover, the “Wirkung auf Basalzellkarzinome” value in assay [7] is listed as “zeigen eine Wirkung”.

Take `CC/C=C\C/C=C\C/C=C\CCCCCCCC(=O)O[Si](CC)(CC)OC(=O)CCCCCCC/C=C\C/C=C\C/C=C\CC` [Di(linolenoylooxy)diethylsilan]: the “Wirkung auf Seminome” value in assay [1] is on record as “zeigen eine Wirkung”. Moreover, the “Wirkung gegen Hepatitis C-Viren” value in [2] was “zeigen eine Wirkung”.

For `CC/C=C\C/C=C\C/C=C\CCCCCCCC(=O)O[Si](CCC)(CCC)OC(=O)CCCCCCC/C=C\C/C=C\C/C=C\CC` [Di(linolenoylooxy)dipropylsilan], the “Wirkung auf Seminome” value in assay [1] was “zeigen eine Wirkung”. In assay [2], the “Wirkung gegen Hepatitis C-Viren” value was “zeigen eine Wirkung”.

With `CCCCC/C=C\C/C=C\CCCCCCCC(=O)O[Si](CCC)(CCC)OC(=O)CCCCCCC/C=C\C/C=C\CCCCC` [Di(linoylooxy)dipropylsilan], the “Wirkung auf Seminome” value in assay [1] is on record as “zeigen eine Wirkung”. For the same compound, the “Wirkung gegen Hepatitis C-Viren” value in [2] is listed as “zeigen eine Wirkung”.

Take `CCCCCCCCCCCCCCCCCC(=O)O[Si](CCC)(CCC)OC(=O)CCCCCCCCCCCCCCCCC` [Di(octadecanoyloxy)dipropylsilan]: the “Wirkung gegen Hepatitis B-Viren” value in assay [4] is listed as “zeigen eine Wirkung”. Moreover, the “Wirkung gegen Angiosarkome” value in assay [5] is recorded as “zeigen eine Wirkung”. The “Wirkung gegen Sendai-Viren” value in [6] is “zeigen eine Wirkung”. Moreover, the “Wirkung auf Basalzellkarzinome” value in assay [7] is listed as “zeigen eine Wirkung”.

On to `CCCCCCCC(=O)O[Si](OC(=O)CCCCCCC)(C(C)C)C(C)C` [Di(octanoyloxy)diisopropylsilan], for which the “Wirkung gegen Hepatitis B-Viren” value in assay [4] is “zeigen eine Wirkung”. Also, in assay [5], the “Wirkung gegen Angiosarkome” value is “zeigen eine Wirkung”. Further, the “Wirkung gegen Sendai-Viren” value in [6] is given as “zeigen eine Wirkung”. In addition, the “Wirkung auf Basalzellkarzinome” value in assay [7] is “zeigen eine Wirkung”.

For the compound `CCCCCCCCCCCCCCC(=O)O[Si](OC(=O)CCCCCCCCCCCCCC)(C(C)C)C(C)C` [Di(pentadecanoyloxydiisopropylsilan], in assay [3], the “Wirkung gegen Adenokarzinom-Gewebe, insbesondere inhibierende Wirkung auf die Metastasierung” value is “haben eine Wirkung”.

On to `CCCCCCCCCCCCCC(=O)O[Si](OC(=O)CCCCCCCCCCCCC)(C(C)C)C(C)C` [Di(tetradecanoyloxy)diisopropylsilan], for which, in assay [3], the “Wirkung gegen Adenokarzinom-Gewebe, insbesondere inhibierende Wirkung auf die Metastasierung” value is “haben eine Wirkung”.

Consider `CCCCCCCCCCCCC(=O)O[Si](OC(=O)CCCCCCCCCCCC)(C(C)C)C(C)C` [Di(tridecanoyloxy)diisopropylsilan], for which the “Wirkung gegen Adenokarzinom-Gewebe, insbesondere inhibierende Wirkung auf die Metastasierung” value in assay [3] is given as “haben eine Wirkung”.

Turning to `C[C@H](N)C(=O)N[C@@H](C)C(=O)N[C@@H](C)C(=O)N[C@@H](C)C(=O)N[C@@H](C)C(=O)N[C@@H](C)C(=O)N[C@@H](C)C(=O)N[C@@H](C)C(=O)O[Si](C)(C)OC(=O)[C@H](C)NC(=O)[C@H](C)NC(=O)[C@H](C)NC(=O)[C@H](C)NC(=O)[C@H](C)NC(=O)[C@H](C)NC(=O)[C@H](C)NC(=O)[C@H](C)N` [Dimethyl bis(octaalanyl)silylester] (I: H-AAAAAAAA / II: H-AAAAAAAA; linker I:C-II:C via X1), in assay [8], the “Vermehrung von Medulloblastom-Zellen” value is “inhibieren”. Besides, the “Vermehrung von Zellen des Basatzellkarzinoms” value in assay [9] is given as “inhibieren”. For the same compound, in assay [10], the “Wirkung auf Mäuse, Osteosarkom bzw. Adenokarzinome” value (“Wirkung auf Mäuse” for short) is recorded as “zeigen eine Wirkung”.

Consider `CC(C)[C@H](N)C(=O)N[C@H](C(=O)N[C@H](C(=O)N[C@H](C(=O)N[C@H](C(=O)N[C@H](C(=O)N[C@H](C(=O)N[C@H](C(=O)O[Si](C)(C)OC(=O)[C@@H](NC(=O)[C@@H](NC(=O)[C@@H](NC(=O)[C@@H](NC(=O)[C@@H](NC(=O)[C@@H](NC(=O)[C@@H](NC(=O)[C@@H](N)C(C)C)C(C)C)C(C)C)C(C)C)C(C)C)C(C)C)C(C)C)C(C)C)C(C)C)C(C)C)C(C)C)C(C)C)C(C)C)C(C)C)C(C)C` [Dimethyl bis(octavalyl)silylester] (I: H-VVVVVVVV / II: H-VVVVVVVV; linker I:C-II:C via X1), for which, in assay [11], the “Wirkung auf Adenokarzinome” value is “zeigen eine Wirkung”.

For the compound `C[C@H](N)C(=O)N[C@@H](C)C(=O)N[C@@H](C)C(=O)N[C@@H](C)C(=O)N[C@@H](C)C(=O)O[Si](C)(C)OC(=O)[C@H](C)NC(=O)[C@H](C)NC(=O)[C@H](C)NC(=O)[C@H](C)NC(=O)[C@H](C)N` [Dimethyl bis(pentaalanyl)silylester], in assay [8], the “Vermehrung von Medulloblastom-Zellen” value is recorded as “inhibieren”. Moreover, the “Vermehrung von Zellen des Basatzellkarzinoms” value in assay [9] is “inhibieren”. Also, the “Wirkung auf Mäuse” value in assay [10] is recorded as “zeigen eine Wirkung”.

Regarding `CC(C)[C@H](N)C(=O)N[C@H](C(=O)N[C@H](C(=O)N[C@H](C(=O)N[C@H](C(=O)O[Si](C)(C)OC(=O)[C@@H](NC(=O)[C@@H](NC(=O)[C@@H](NC(=O)[C@@H](NC(=O)[C@@H](N)C(C)C)C(C)C)C(C)C)C(C)C)C(C)C)C(C)C)C(C)C)C(C)C)C(C)C` [Dimethyl bis(pentavalyl)silylester], in assay [11], the “Wirkung auf Adenokarzinome” value is “zeigen eine Wirkung”.

Turning to `C[C@H](N)C(=O)N[C@@H](C)C(=O)N[C@@H](C)C(=O)N[C@@H](C)C(=O)O[Si](C)(C)OC(=O)[C@H](C)NC(=O)[C@H](C)NC(=O)[C@H](C)NC(=O)[C@H](C)N` [Dimethyl bis(tetraalanyl)silylester], in assay [8], the “Vermehrung von Medulloblastom-Zellen” value is on record as “inhibieren”. Further, the “Vermehrung von Zellen des Basatzellkarzinoms” value in assay [9] is reported as “inhibieren”. The “Wirkung auf Mäuse” value in [10] is given as “zeigen eine Wirkung”.

In the case of `C[C@H](N)C(=O)N[C@@H](C)C(=O)N[C@@H](C)C(=O)O[Si](C)(C)OC(=O)[C@H](C)NC(=O)[C@H](C)NC(=O)[C@H](C)N` [Dimethyl bis(trialanyl)sillylester], the “Vermehrung von Medulloblastom-Zellen” value in assay [8] is on record as “inhibieren”. Further, the “Vermehrung von Zellen des Basatzellkarzinoms” value in assay [9] is “inhibieren”. In addition, in assay [10], the “Wirkung auf Mäuse” value is listed as “zeigen eine Wirkung”.

As to `C[C@H](N)C(=O)N[C@@H](C)C(=O)N[C@@H](C)C(=O)N[C@@H](C)C(=O)N[C@@H](C)C(=O)N[C@@H](C)C(=O)N[C@@H](C)C(=O)N[C@@H](C)C(=O)N[C@@H](C)C(=O)O[Si](OC(=O)[C@H](C)NC(=O)[C@H](C)NC(=O)[C@H](C)NC(=O)[C@H](C)NC(=O)[C@H](C)NC(=O)[C@H](C)NC(=O)[C@H](C)NC(=O)[C@H](C)NC(=O)[C@H](C)N)(c1ccccc1)c1ccccc1` [Diphenyl bis(nonaalanyl)silylester] (I: H-AAAAAAAAA / II: H-AAAAAAAAA; linker I:C-II:C via X2), the “Wirkung gegen Hepatitis-Viren” value in [12] is reported as “zeigen eine Wirkung”. Further, the “Wirkung auf Lymphome” value in assay [13] is on record as “zeigen eine Wirkung”.

On to `C[C@H](N)C(=O)N[C@@H](C)C(=O)N[C@@H](C)C(=O)N[C@@H](C)C(=O)N[C@@H](C)C(=O)N[C@@H](C)C(=O)N[C@@H](C)C(=O)N[C@@H](C)C(=O)O[Si](OC(=O)[C@H](C)NC(=O)[C@H](C)NC(=O)[C@H](C)NC(=O)[C@H](C)NC(=O)[C@H](C)NC(=O)[C@H](C)NC(=O)[C@H](C)NC(=O)[C@H](C)N)(c1ccccc1)c1ccccc1` [Diphenyl bis(octaalanyl)silylester] (I: H-AAAAAAAA / II: H-AAAAAAAA; linker I:C-II:C via X2), for which, in assay [12], the “Wirkung gegen Hepatitis-Viren” value is on record as “zeigen eine Wirkung”. Further, the “Wirkung auf Lymphome” value in [13] is listed as “zeigen eine Wirkung”.

For the compound `C[C@H](N)C(=O)N[C@@H](C)C(=O)N[C@@H](C)C(=O)N[C@@H](C)C(=O)N[C@@H](C)C(=O)O[Si](OC(=O)[C@H](C)NC(=O)[C@H](C)NC(=O)[C@H](C)NC(=O)[C@H](C)NC(=O)[C@H](C)N)(c1ccccc1)c1ccccc1` [Diphenyl bis(pentaalanyl)silylester], the “Wirkung gegen Hepatitis-Viren” value in assay [12] is “zeigen eine Wirkung”. In addition, the “Wirkung auf Lymphome” value in [13] is on record as “zeigen eine Wirkung”.

As for `C[C@H](N)C(=O)N[C@@H](C)C(=O)N[C@@H](C)C(=O)N[C@@H](C)C(=O)O[Si](OC(=O)[C@H](C)NC(=O)[C@H](C)NC(=O)[C@H](C)NC(=O)[C@H](C)N)(c1ccccc1)c1ccccc1` [Diphenyl bis(tetraalanyl)silylester], the “Wirkung gegen Hepatitis-Viren” value in [12] is recorded as “zeigen eine Wirkung”. Besides, in [13], the “Wirkung auf Lymphome” value is on record as “zeigen eine Wirkung”.

On to Diphenyl bis(hexaalanyl)silylester, for which the “Wirkung gegen Hepatitis-Viren” value in assay [12] was “zeigen eine Wirkung”. Further, in [13], the “Wirkung auf Lymphome” value was “zeigen eine Wirkung”.
